Results as given in publication PMC9501899 (Journal of the American Chemical Society, 2022).

Key:
pRab10 = experiment: Rab10 dephosphorylation in R1441C LRRK2 MEFs; assay type: cell-based; details: Mus musculus, 4 h, read-out: EC50s (pRab10)
Description: Primary MEFs were generated as described in a previous study.[80] Briefly, the uterine horn was collected from adult female mice at day E12.5 and transferred to a 10 cm tissue culture dish containing cold PBS. Two forceps were used to tear the yolk sacs to isolate each embryo. Forceps were cleaned thoroughly with 70% ethanol between each embryo isolation. The embryos were culled, and a tissue piece was collected in a polymerase chain reaction (PCR) tube for genotyping. The red tissue of the embryo was removed, and the remainder was minced with a scalpel blade and incubated with a 7.5 mL trypsin–ethylenediaminetetraacetic acid (EDTA) solution for 10 min in a 37 °C, 5% CO2 tissue culture incubator. The dish was removed from the incubator and checked under a light microscope for single cells. Complete media (7.5 mL) was added to the trypsinized cells, and the cell suspension was transferred to a 15 mL Falcon tube and centrifuged at 1200 rpm for 5 min at room temperature. […]
Culturing and passaging of adherent cell lines were carried out using an aseptic technique in CL1 or CL2 (for PBMC isolation) biological safety cabinets. […] The cell pellet was discarded, and the supernatant was collected for analysis by quantitative immunoblotting. […] Protein concentrations of cell lysates were determined using the Bradford assay. […]

R1441C LRRK2 = target: T1, R1441C LRRK2 (Mus musculus, UniProt Q5S006, R1441C); experiment: LRRK2 degradation in R1441C LRRK2 MEFs; assay type: cell-based; details: 4 h
T1 construct: endogenous in cells; host or cells: R1441C LRRK2 MEFs
T1 sequence (Q5S006 whole entry R1441C): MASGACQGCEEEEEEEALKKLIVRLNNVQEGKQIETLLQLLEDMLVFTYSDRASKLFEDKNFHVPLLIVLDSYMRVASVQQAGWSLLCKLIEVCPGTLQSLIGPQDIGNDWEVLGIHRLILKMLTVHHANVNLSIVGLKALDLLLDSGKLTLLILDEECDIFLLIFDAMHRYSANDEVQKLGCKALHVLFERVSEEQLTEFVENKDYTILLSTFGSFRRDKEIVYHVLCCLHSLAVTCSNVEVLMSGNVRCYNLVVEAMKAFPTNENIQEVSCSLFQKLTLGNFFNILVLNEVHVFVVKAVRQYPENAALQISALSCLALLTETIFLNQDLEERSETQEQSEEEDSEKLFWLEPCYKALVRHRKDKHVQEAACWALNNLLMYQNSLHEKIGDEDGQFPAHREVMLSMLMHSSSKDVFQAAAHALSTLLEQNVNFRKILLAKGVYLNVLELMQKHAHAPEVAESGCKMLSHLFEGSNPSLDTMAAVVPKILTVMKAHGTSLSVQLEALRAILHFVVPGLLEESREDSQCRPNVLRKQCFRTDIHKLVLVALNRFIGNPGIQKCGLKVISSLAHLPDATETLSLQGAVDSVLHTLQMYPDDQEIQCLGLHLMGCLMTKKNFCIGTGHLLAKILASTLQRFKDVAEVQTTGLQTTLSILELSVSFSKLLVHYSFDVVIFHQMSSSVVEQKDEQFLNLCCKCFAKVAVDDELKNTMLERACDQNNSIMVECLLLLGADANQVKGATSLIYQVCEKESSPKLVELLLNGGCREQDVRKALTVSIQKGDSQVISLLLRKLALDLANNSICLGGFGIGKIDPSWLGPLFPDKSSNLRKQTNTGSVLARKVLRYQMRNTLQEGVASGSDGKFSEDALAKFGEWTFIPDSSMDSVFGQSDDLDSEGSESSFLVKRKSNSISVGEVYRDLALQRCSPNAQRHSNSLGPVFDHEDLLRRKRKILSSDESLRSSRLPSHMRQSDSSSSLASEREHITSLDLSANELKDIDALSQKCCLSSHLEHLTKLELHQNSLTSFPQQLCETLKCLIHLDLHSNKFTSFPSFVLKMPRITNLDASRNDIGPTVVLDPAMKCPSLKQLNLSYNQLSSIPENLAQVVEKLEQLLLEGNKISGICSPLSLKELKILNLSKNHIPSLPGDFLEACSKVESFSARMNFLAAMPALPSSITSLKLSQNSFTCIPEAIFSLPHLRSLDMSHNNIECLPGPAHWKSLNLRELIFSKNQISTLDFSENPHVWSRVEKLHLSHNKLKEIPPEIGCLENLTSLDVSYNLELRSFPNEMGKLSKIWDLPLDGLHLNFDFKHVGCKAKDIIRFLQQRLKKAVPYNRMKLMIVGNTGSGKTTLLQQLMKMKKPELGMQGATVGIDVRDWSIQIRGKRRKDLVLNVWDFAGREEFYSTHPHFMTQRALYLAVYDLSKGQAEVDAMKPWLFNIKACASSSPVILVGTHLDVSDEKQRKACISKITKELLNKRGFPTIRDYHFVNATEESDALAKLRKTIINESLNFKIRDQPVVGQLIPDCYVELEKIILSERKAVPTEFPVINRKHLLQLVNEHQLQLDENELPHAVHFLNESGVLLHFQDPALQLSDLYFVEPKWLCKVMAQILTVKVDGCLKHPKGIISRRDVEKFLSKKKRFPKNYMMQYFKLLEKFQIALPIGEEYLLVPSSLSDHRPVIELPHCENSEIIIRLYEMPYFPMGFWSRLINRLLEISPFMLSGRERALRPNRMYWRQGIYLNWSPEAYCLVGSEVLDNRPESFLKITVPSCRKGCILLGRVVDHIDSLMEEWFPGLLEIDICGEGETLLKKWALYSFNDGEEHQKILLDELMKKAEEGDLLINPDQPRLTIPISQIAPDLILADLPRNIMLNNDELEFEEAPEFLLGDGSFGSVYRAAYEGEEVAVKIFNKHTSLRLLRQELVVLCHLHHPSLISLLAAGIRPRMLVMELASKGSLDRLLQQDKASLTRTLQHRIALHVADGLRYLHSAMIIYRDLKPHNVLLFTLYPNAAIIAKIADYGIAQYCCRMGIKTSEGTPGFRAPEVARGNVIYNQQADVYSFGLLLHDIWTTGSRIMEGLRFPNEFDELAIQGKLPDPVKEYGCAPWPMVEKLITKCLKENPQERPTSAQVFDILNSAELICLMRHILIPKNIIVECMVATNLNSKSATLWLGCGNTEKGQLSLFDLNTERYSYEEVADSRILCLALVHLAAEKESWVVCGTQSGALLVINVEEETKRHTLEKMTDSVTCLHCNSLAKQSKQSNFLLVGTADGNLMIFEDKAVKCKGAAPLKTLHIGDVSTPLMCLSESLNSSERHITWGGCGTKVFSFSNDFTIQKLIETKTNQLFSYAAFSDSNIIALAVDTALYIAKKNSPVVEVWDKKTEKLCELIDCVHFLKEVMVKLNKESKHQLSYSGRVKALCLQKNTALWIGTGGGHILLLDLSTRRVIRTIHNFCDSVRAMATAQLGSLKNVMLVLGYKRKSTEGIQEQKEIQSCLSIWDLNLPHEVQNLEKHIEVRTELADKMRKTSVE

Row | SMILES | EC50 (pRab10) [nM] | DC50s (LRRK2) (R1441C LRRK2) | Dmax (LRRK2) (R1441C LRRK2)
1 | CNc1nc(Nc2ccc(C(=O)N3CCN(C[C@H]4CC[C@H](CSC(C)(C)[C@H](NC(=O)C5(F)CC5)C(=O)N5C[C@H](O)CC5C(=O)NCc5ccc(-c6scnc6C)cc5)CC4)CC3)cc2OC)ncc1Cl (stereo partly drawn) [XL01126, (2S,4R)-1-((R)-3-((((1R,4R)-4-((4-(4-((5-Chloro-4-(methylamino)pyrimidin-2-yl)amino)-3-methoxybenzoyl)piperazin-1-yl)methyl)cyclohexyl)methyl)thio)-2-(1-fluorocyclopropane-1-carboxamido)-3-methylbutanoyl)-4-hydroxy-N-(4-(4-methylthiazol-5-yl)benzyl)pyrrolidine-2-carboxamide] | 30 | 15 nM (4 h) | 
2 | CNc1nc(Nc2ccc(C(=O)N3CCN(C[C@H]4CC[C@H](CSC(C)(C)[C@H](NC(=O)C5(F)CC5)C(=O)N5C[C@@H](O)C[C@H]5C(=O)NCc5ccc(-c6scnc6C)cc5)CC4)CC3)cc2OC)ncc1Cl [cis-XL01126, (2S,4S)-1-((R)-3-((((1R,4R)-4-((4-(4-((5-Chloro-4-(methylamino)pyrimidin-2-yl)amino)-3-methoxybenzoyl)piperazin-1-yl)methyl)cyclohexyl)methyl)thio)-2-(1-fluorocyclopropane-1-carboxamido)-3-methylbutanoyl)-4-hydroxy-N-(4-(4-methylthiazol-5-yl)benzyl)pyrrolidine-2-carboxamide] | 158 | NDO | NDO
